Reference: ChEMBL document CHEMBL4190274, “A Cyclopeptide and a Tetrahydroisoquinoline Alkaloid from Ophiorrhiza nutans” (J Nat Prod, 2017)

Assays:
Assay type in all cases: functional, cell-based
HCT-116 = experiment: Cytotoxicity against human HCT116 cells
HT-29 = experiment: Cytotoxicity against human HT-29 cells
A549 = experiment: Cytotoxicity against human A549 cells

Measured: IC50

C[N+](C)(C)[C@@H](Cc1ccc(O)cc1)C(=O)N[C@@H]1C(=O)N[C@@H](Cc2ccccc2)C(=O)N[C@H](C(=O)[O-])Cc2ccc(cc2)O[C@@H]1c1ccccc1
> 15 µM: all assays above
